Laboratory results reported in the supplement of paper PMC10307832.

Key:
Assay in all cases: relative viability (nuclei count vs DMSO), 5 days (fraction); higher = more cells survive
CUDC-101 = compound: C#Cc1cccc(Nc2ncnc3cc(OC)c(OCCCCCCC(=O)NO)cc23)c1 [CUDC-101]
Summary of the method: (§1)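 Viability was read as treated-well nuclei divided by vehicle-well nuclei, using the median across plates. Lung cancer cell lines in 1536-well plates were kept overnight at 37 °C, pinned with five √10-spaced library-drug doses, and after 5 days were Hoechst-stained, imaged at 4× and counted in MetaXpress. Plates passed only with control CV below 25% and at least one doubling.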

[1] = compound: C1=CC=C2C(=C1)N=C(S2)C(C#N)C3=NC(=NC=C3)NCCC4=CN=CC=C4
Summary of the method: as §1

NVP-TAE684 = compound: COc1cc(N2CCC(N3CCN(C)CC3)CC2)ccc1Nc1ncc(Cl)c(Nc2ccccc2S(=O)(=O)C(C)C)n1 [NVP-TAE684]
Summary of the method: as §1

Vandetanib = compound: COc1cc2/c(=N/c3ccc(Br)cc3F)nc[nH]c2cc1OCC1CCN(C)CC1 [Vandetanib]
Summary of the method: as §1

Cell Line	relative viability (CUDC-101; 0.01 µM)	relative viability (CUDC-101; 0.03162 µM)	relative viability (CUDC-101; 0.1 µM)	relative viability (CUDC-101; 0.3162 µM)	relative viability (CUDC-101; 1 µM)	relative viability ([1]; 0.005 µM)	relative viability ([1]; 0.01581 µM)	relative viability ([1]; 0.05 µM)	relative viability ([1]; 0.1581 µM)	relative viability ([1]; 0.5 µM)	relative viability (NVP-TAE684; 0.2 µM)	relative viability (NVP-TAE684; 0.6325 µM)	relative viability (NVP-TAE684; 2 µM)	relative viability (Vandetanib; 0.02 µM)	relative viability (Vandetanib; 0.06325 µM)	relative viability (Vandetanib; 0.2 µM)	relative viability (Vandetanib; 0.6325 µM)	relative viability (Vandetanib; 2 µM)
NCI-H522	0.879	1.09	1.01	0.979	0.743	0.958	0.795	0.761	1.11	0.878	0.953	0.874	0.923	0.915	1.03	0.91	0.933	0.97
RERF-LC-KJ	1	1.02	1.01	0.98	0.801	0.988	1.04	0.953	1.07	0.895	0.971	0.969	0.79	0.962	0.954	0.963	0.927	0.815
A-427	1.02	0.978	0.949	0.932	0.738	0.993	0.875	0.919	1.15	0.95	1.11	0.847	0.863	0.955	0.963	0.953	0.98	0.96
EKVX	1.02	1.04	0.883	1.1	0.772	1.08	0.939	0.947	1.04	0.952	0.862	0.873	0.719	1	0.928	0.925	0.773	0.608
NCI-H460	1	0.902	0.977	1.01	0.996	0.925	0.999	0.995	1.14	0.934	1.08	1.02	–	0.964	0.992	1.02	1	0.963
HARA	1.01	0.942	0.774	0.861	0.39	1.1	0.769	0.994	1.09	0.93	–	0.838	0.667	1.13	0.939	0.914	0.899	0.942
NCI-H1944	0.981	0.884	0.899	0.817	0.574	0.914	0.956	0.958	1.03	0.951	1.08	0.939	0.94	0.909	0.92	0.902	0.813	0.965
BEN	1.11	0.833	1.06	0.856	0.708	0.864	0.908	0.97	1.04	1.08	0.933	0.73	0.876	0.941	0.916	0.886	0.933	0.988
PC-14	1.12	0.837	0.602	0.537	0.273	0.919	1.07	0.95	1.15	0.902	0.998	1.01	0.921	0.987	0.833	0.574	0.369	0.223
NCI-H322M	0.889	0.846	0.768	0.739	0.474	0.745	0.839	0.924	0.951	0.914	1.02	0.795	0.636	0.895	0.879	0.872	0.797	0.538
NCI-H1651	1.05	0.984	0.991	1.08	0.932	0.884	1.02	1.14	1.07	0.984	0.946	0.966	0.868	0.943	0.961	0.979	0.96	0.893
LCLC-97TM1	1.05	0.917	1.06	1.02	0.832	0.944	0.991	0.974	1.13	1.08	0.897	0.735	0.471	1.05	0.939	1.01	1.05	0.832
NCI-H727	0.954	0.869	1.04	0.827	0.629	0.904	0.903	0.832	1.13	0.78	0.806	0.91	0.515	0.894	0.809	0.906	0.796	0.681
NCI-H1623	1.11	0.858	0.82	0.813	0.552	0.981	1.01	0.837	0.96	0.846	0.945	0.868	0.852	0.891	0.905	0.949	0.938	0.825
NCI-H1666	1.04	0.92	0.992	1.05	0.858	1.09	0.988	1.04	1.01	0.99	0.922	0.933	0.812	0.991	0.932	0.891	1.01	0.918
IA-LM	1.01	0.861	1.06	0.879	0.697	0.834	1.19	0.997	1.02	0.762	0.712	0.885	0.75	0.996	0.895	0.946	1.09	1.15
NCI-H1792	0.928	0.896	0.853	1.04	0.809	–	0.747	0.924	1.2	0.693	0.844	0.708	0.594	0.878	0.829	0.974	0.858	0.874
NCI-H1299	1.01	0.998	1.02	1.01	0.919	1.06	1.05	0.95	1.06	0.974	1.05	1.01	–	1.01	0.963	1.05	1.01	1.02
